The source of these data is patent US4822879A, “Enzyme-inhibitory griseolic acid derivatives, and their use” (Sankyo Company Limited, priority 1984, dated 1989).

Each structure is given as a SMILES string.

One data set concerns the target cAMP PDE. Description: Enzyme inhibitory activity, cAMP PDE (crude enzymatic solution from rat brains). The data set is classed as biochemical. The settings on record: for IC50: 14C-labeled cAMP substrate 0.14 μmoles, pH 8.0, 30° C., 20 minutes, read-out: I50 (50% inhibition value); for potency relative to papaverine: ratio to papaverine. The protocol: The enzyme inhibitory activity of dihydrodesoxygriseolic acid was measured, as was that of griseolic acid itself and that of the known cAMP PDE inhibitor, papaverine, for purposes of comparison.
The test was carried out following essentially the method of A. L. Pichard and Y. U. Chung [Journal of Biological Chemistry, 251, 5726-5737 (1976)]. A crude enzymatic solution derived from rat brains was used as the source of cAMP PDE.
^14 C-labeled cAMP was used as the substrate. It was employed in a 0.2M Tris-hydrochloric acid buffer solution (pH 8.0) in an amount sufficient to provide a final concentration of 0.14 μmoles. "Tris" is tris(hydroxymethyl)aminomethane. The substrate solution was mixed with an appropriate amount of the compound under test dissolved in 2-5 μl of dimethyl sulfoxide and with 20 μl of a snake venom solution and 40 μl of the crude enzyme solution. Sufficient Tris-hydrochloric acid buffer was added to make a total volume of 100 μl. The mixture was allowed to react at 30° C. for 20 minutes. At the end of this time, the reaction mixture was treated with an Amberlite (trademark) IRP-58 resin and the level of residual adenosine radioactivity in the product was determined.
The results are shown in the following Table 1, in which the I50 values are given in μmoles.

Data set [1] has as its system male mice of the ddY strain. The data set is described as follows: Acute toxicity, intravenous, mice. The settings on record: in words, from Table 2. The text has this: The compounds under test were griseolic acid and dihydrodesoxygriseolic acid. The test animals were male mice of the ddY strain, 5 weeks of age and weighing 24.25 g. The mice were employed in groups of 3 or 5 animals for each test.
Administration was intravenous.
The results are reported in Table 2, in the form "a/b", where "a" is the number of deceased animals in the test group at the end of the test and "b" is the total number of animals in the relevant test group.

The nature of data set [2]: Water solubility (stated in words). Type of data set: physicochemical.

With `Nc1ncnc2c1ncn2C1OC2CC(CC(=O)O)(C(=O)O)OC2C1O` (centres unmarked) [dihydrodesoxygriseolic acid], the IC50 at cAMP PDE came to 120 nM. Moreover, the “inhibitory activity compared with griseolic acid” value in the data set with cAMP PDE (in words, from Table 1) was “comparable with that of griseolic acid”. In addition, in the data set on cAMP PDE (from Table 1), the “potency relative to papaverine” value is recorded as “about 20 times”. The “toxicity compared with griseolic acid” value in data set [1] was “substantially less toxic than griseolic acid”. For the same compound, the water solubility entry in data set [2] is “water-soluble”.
Take `Nc1ncnc2c1ncn2[C@@H]1OC2=C[C@@](C(=O)O)(C(O)C(=O)O)O[C@H]2[C@H]1O` (some centres unmarked) [griseolic acid]: the IC50 at cAMP PDE was 160 nM. In addition, the “potency relative to papaverine” value in the data set on cAMP PDE (from Table 1) is on record as “about 20 times”.
In the case of `COc1ccc(Cc2nccc3cc(OC)c(OC)cc23)cc1OC` [papaverine, reference compound], the IC50 on cAMP PDE is 3500 nM.
